Experimental findings from patent US9067949B2, “Benzofuro[3,2-c] pyridines and related analogs as serotonin sub-type 6 (5-HT6) modulators for the treatment of obesity, metabolic syndrome, cognition and schizophrenia” (Albany Molecular Research, Inc., priority 2011, dated 2015) are described below.

Like-named read-outs stand apart in the source and are kept apart here.

The target of one data set is human 5-HT6 receptor (Homo sapiens (Human), UniProt P50406). The experiment in a line: 5-HT6 radioligand binding assay (SPA format, [N-methyl-3H]-LSD). As to the method: The relative affinities of the various compounds for the 5-HT6 receptor were measured in a radioligand binding assay, using a scintillation proximity assay (SPA) format.
For binding analysis vs. the human receptor, samples were incubated in 50 mM Tris-HCl, pH 7.5, 5 mM MgCl2, 1 mM EDTA (4% DMSO final) with 10 nM [N-methyl-^3H]-LSD (Perkin Elmer), 2.5 ng of human 5-HT6 receptor membranes (Millipore) and 50 μg SPA beads (PVT-PEI-WGA, GE Healthcare) per well in a final volume of 0.2 mL. […] Binding reactions were performed in PicoPlate96 microtiter plates (Perkin Elmer) by consecutively adding 50 μL of each competing compound or buffer, SPA beads, radioligand and 5-HT6 receptor membranes. After an overnight incubation at room temperature on a Nutator mixer, plates were centrifuged for 15 min at 1,500 rpm, followed by incubation in the dark for 10 min. […] Total binding control contained compound dilution buffer only; nonspecific binding is determined in the presence of 100 μM 5-hydroxytryptamine. Specific binding was determined by subtracting nonspecific binding from total binding.
All experiments were performed in duplicate using ten concentrations of competing ligand, with clozapine included as a control in every run. IC50 values were determined from specific binding data using XLfit4.1 curve fitting software from IDBS Ltd. The inhibition constant (Ki) was calculated using the Cheng-Prusoff equation: (Ki=IC50/(1+(L/KD)), where L=concentration of radioligand in the assay, and KD=affinity of the radioligand for the receptor.

The mark [1] stands for this setting: human 5-HT6 receptor membranes, 10 nM [N-methyl-3H]-LSD, Ki by Cheng-Prusoff, hydrochloride, read-out: human 5HT6 Ki.
The mark [2] stands for this setting: human 5-HT6 receptor membranes, 10 nM [N-methyl-3H]-LSD, Ki by Cheng-Prusoff, read-out: human 5HT6 Ki.

human 5-HT6 receptor, sequence (P50406 whole entry): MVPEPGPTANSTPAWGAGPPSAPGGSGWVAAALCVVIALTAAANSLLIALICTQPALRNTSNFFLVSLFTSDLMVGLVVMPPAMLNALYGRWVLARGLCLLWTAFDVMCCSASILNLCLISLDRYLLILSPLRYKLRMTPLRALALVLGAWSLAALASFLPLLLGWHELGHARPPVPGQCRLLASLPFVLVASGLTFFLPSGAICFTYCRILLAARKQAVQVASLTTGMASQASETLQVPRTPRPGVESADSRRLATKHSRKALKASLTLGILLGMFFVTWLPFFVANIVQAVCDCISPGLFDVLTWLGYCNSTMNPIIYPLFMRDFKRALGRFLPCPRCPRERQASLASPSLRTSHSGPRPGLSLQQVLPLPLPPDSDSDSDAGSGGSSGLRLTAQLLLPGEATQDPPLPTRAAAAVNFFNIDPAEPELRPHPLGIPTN

A word on the Ki: it is the dissociation constant of the complex between target and ligand, obtained from inhibition or displacement. For orientation: melting point means the temperature of the solid-liquid transition. Turning to `CC1NCCc2oc3c(Cl)cc(S(=O)(=O)c4ccccc4)cc3c21.Cl` (single isomer, unassigned; (+)) [Example 82a, (+)-6-chloro-1-methyl-8-(phenylsulfonyl)-1,2,3,4-tetrahydrobenzofuro[3,2-c]pyridine hydrochloride], the melting point is 295 °C (dec.). On human 5-HT6 receptor (setting [1]), the Ki came out at 56 nM.
With `O=S(=O)(c1ccccc1)c1cc(Cl)c2oc3c(c2c1)CC(O)CC3` (single isomer, unassigned; (+)) [Example 99, (+)-6-chloro-8-(phenylsulfonyl)-1,2,3,4-tetrahydrodibenzo[b,d]furan-2-ol], the melting point was 238 to 242 °C. Besides, the Ki at human 5-HT6 receptor (setting [2]) was determined as 1 nM.
On to `CC1Cc2oc3c(Cl)cc(S(=O)(=O)c4ccccc4)cc3c2CN1.Cl` (single isomer, unassigned; (-)) [Example 83a, (−) 6-chloro-3-methyl-8-(phenylsulfonyl)-1,2,3,4-tetrahydrobenzofuro[3,2-c]pyridine hydrochloride], for which the melting point is 293 °C (dec.). Further, on human 5-HT6 receptor (setting [1]), the Ki amounted to 25 nM.
Regarding `O=S(=O)(c1ccccc1)c1cc(Cl)c2oc3c(c2c1)CC(O)CC3` (single isomer, unassigned; (-)) [Example 98, (−)-6-chloro-8-(phenylsulfonyl)-1,2,3,4-tetrahydrodibenzo[b,d]furan-2-ol], the melting point was 236 to 240 °C. In addition, the Ki at human 5-HT6 receptor (setting [2]) turned out to be 46 nM.
`CN1CCc2oc3ccc(S(=O)(=O)c4ccccc4)cc3c2C1.Cl` [Example 27, 2-Methyl-8-(phenylsulfonyl)-1,2,3,4-tetrahydrobenzofuro[3,2c]pyridine hydrochloride]: the melting point came to 272 °C. Further, the Ki at human 5-HT6 receptor (setting [2]) amounted to 6.5 nM.
Taken in the same sequence, the figures for `Cl.O=S(=O)(c1ccccc1)c1ccc2oc3c(c2c1)CNCC3` [Example 28, 8-(Phenylsulfonyl)-1,2,3,4-tetrahydrobenzofuro[3,2-c]pyridine hydrochloride] were 243 °C and 19 nM.
On to `Cl.O=S(=O)(c1cccc(F)c1)c1ccc2oc3c(c2c1)CNCC3` [Example 29, 8-(3-Fluorophenylsulfonyl)-1,2,3,4-tetrahydrobenzofuro[3,2-c]pyridine hydrochloride], for which the melting point was 262 to 272 °C (dec.). Besides, the Ki at human 5-HT6 receptor (setting [2]) came to 16 nM.
In the case of `Cl.O=S(=O)(c1cccc(Cl)c1)c1ccc2oc3c(c2c1)CNCC3` [Example 30, 8-(3-Chlorophenylsulfonyl)-1,2,3,4-tetrahydrobenzofuro[3,2-c]pyridine hydrochloride], the melting point was 245 to 252 °C (dec.). Besides, the Ki on human 5-HT6 receptor (setting [2]) came to 6.2 nM.
In turn, `Cl.O=S(=O)(c1ccc(F)cc1)c1ccc2oc3c(c2c1)CNCC3` [Example 31, 8-(4-Fluorophenylsulfonyl)-1,2,3,4-tetrahydrobenzofuro[3,2-c]pyridine hydrochloride] came in with a melting point of 270 to 280 °C. The Ki on human 5-HT6 receptor (setting [2]) was determined as 43 nM.
For `Cl.O=S(=O)(c1ccc(Cl)cc1)c1ccc2oc3c(c2c1)CNCC3` [Example 32, 8-(4-Chlorophenylsulfonyl)-1,2,3,4-tetrahydrobenzofuro[3,2-c]pyridine hydrochloride], in that order: 302 to 305 °C and 38 nM.
For `COc1ccc(S(=O)(=O)c2ccc3oc4c(c3c2)CNCC4)cc1.Cl` [Example 33, 8-(4-Methoxyphenylsulfonyl)-1,2,3,4-tetrahydrobenzofuro[3,2-c]pyridine hydrochloride], in that order: 270 to 272 °C and 100 nM.
As for `Cl.N#Cc1ccc(S(=O)(=O)c2ccc3oc4c(c3c2)CNCC4)cc1` [Example 34, 8-(4-Cyanophenylsulfonyl)-1,2,3,4-tetrahydrobenzofuro[3,2-c]pyridine hydrochloride], the melting point is 295 to 301 °C (dec.). On human 5-HT6 receptor, the Ki is 1320 nM.
As for `Cc1cc(S(=O)(=O)c2cc(Cl)cc(Cl)c2)cc2c3c(oc12)CCNC3` [Example 198], at human 5-HT6 receptor (setting [2]), the Ki is 1.2 nM.
Same read-out and setting: the figure for `Cc1cc(S(=O)(=O)c2ccc(F)c(F)c2)cc2c3c(oc12)CCNC3` [Example 199] is 2 nM.
Still for that read-out and setting: the figure for `Cc1cc(S(=O)(=O)c2cccc(F)c2)cc2c3c(oc12)CCNC3` [Example 200] is 0.5 nM; for `Cc1cc(S(=O)(=O)c2cccc(C(F)(F)F)c2)cc2c3c(oc12)CCNC3` [Example 201] it is 0.22 nM.
Still for that read-out and setting: as for `Cc1cc(S(=O)(=O)c2cccc(OC(F)F)c2)cc2c3c(oc12)CCNC3` [Example 202], the figure is 0.3 nM; as for `Cc1cc(S(=O)(=O)c2ccc(F)cc2)cc2c3c(oc12)CCNC3` [Example 203], 1.5 nM.
Take `Cc1cc(S(=O)(=O)c2ccc3sccc3c2)cc2c3c(oc12)CCNC3` [Example 204]: the Ki on human 5-HT6 receptor (setting [2]) was determined as 0.23 nM.
On to `O=S(=O)(c1ccccc1)c1cc(C(F)(F)F)c2oc3c(c2c1)CNCC3` [Example 205], for which the Ki on human 5-HT6 receptor (setting [2]) was found to be 2.1 nM.
Same read-out and setting: the figure for `O=S(=O)(c1cccc(C(F)(F)F)c1)c1cc(F)c2oc3c(c2c1)CNCC3` [Example 206] is 5.9 nM.
`O=S(=O)(c1ccc(F)cc1)c1cc(F)c2oc3c(c2c1)CNCC3` [Example 207]: at human 5-HT6 receptor (setting [2]), the Ki amounted to 44 nM.
As for `N#Cc1cc(S(=O)(=O)c2cc(F)cc(F)c2)cc2c3c(oc12)CCNC3` [Example 208], the Ki at human 5-HT6 receptor (setting [2]) was found to be 50 nM.
Still for that read-out and setting: as for `N#Cc1cc(S(=O)(=O)c2ccc(F)cc2)cc2c3c(oc12)CCNC3` [Example 209], the figure is 18 nM; as for `N#Cc1cc(S(=O)(=O)c2ccccc2)cc2c3c(oc12)CCNC3` [Example 210], 4.2 nM.
Still for that read-out and setting: the figure for `Cn1cc(S(=O)(=O)c2cc(C#N)c3oc4c(c3c2)CNCC4)c2ccccc21` [Example 211] is 0.4 nM; for `N#Cc1cc(S(=O)(=O)c2ccc(Cl)cc2)cc2c3c(oc12)CCNC3` [Example 212] it is 8.8 nM; for `N#Cc1cc(S(=O)(=O)c2cccc(Cl)c2)cc2c3c(oc12)CCNC3` [Example 213] it is 1.9 nM.
`O=S(=O)(c1ccccc1)c1cc(OC(F)(F)F)c2oc3c(c2c1)CNCC3` [Example 214]: at human 5-HT6 receptor (setting [2]), the Ki worked out at 0.88 nM.
In the case of `CCOc1cc(S(=O)(=O)c2ccccc2)cc2c3c(oc12)CCNC3` [Example 215], the Ki at human 5-HT6 receptor (setting [2]) amounted to 0.11 nM.
Still for that read-out and setting: as for `O=S(=O)(c1ccccc1)c1cc(OC(F)F)c2oc3c(c2c1)CNCC3` [Example 216], the figure is 0.33 nM; as for `O=S(=O)(c1ccccc1)c1cc(OCCO)c2oc3c(c2c1)CNCC3` [Example 217], 1.6 nM; as for `CC(C)(O)COc1cc(S(=O)(=O)c2ccccc2)cc2c3c(oc12)CCNC3` [Example 218], 507 nM.
On the same count and under the same terms, as for `CC(C)(O)c1cc(S(=O)(=O)c2ccccc2)cc2c3c(oc12)CCNC3` [Example 220], the figure is 55 nM; as for `CC(O)c1cc(S(=O)(=O)c2ccccc2)cc2c3c(oc12)CCNC3` (centres unmarked) [Example 221], 5.7 nM.
The same measure, in the same setting: the figure for `NC(=O)c1cc(S(=O)(=O)c2ccccc2)cc2c3c(oc12)CCNC3` [Example 222] is 307 nM.
On to `CN(C)C(=O)c1cc(S(=O)(=O)c2ccccc2)cc2c3c(oc12)CCNC3` [Example 223], for which the Ki at human 5-HT6 receptor (setting [2]) was 1110 nM.
On the same count and under the same terms, the figure for `O=S(=O)(c1ccccc1)c1cc(-c2cc[nH]n2)c2oc3c(c2c1)CNCC3` [Example 224] is 4.5 nM.
On the same count and under the same terms, as for `Cn1cc(-c2cc(S(=O)(=O)c3ccccc3)cc3c4c(oc23)CCNC4)cn1` [Example 225], the figure is 11 nM; as for `O=S(=O)(c1ccccc1)c1cc(-n2cncn2)c2oc3c(c2c1)CNCC3` [Example 226], 106 nM; as for `Cn1ccc(-c2cc(S(=O)(=O)c3ccccc3)cc3c4c(oc23)CCNC4)n1` [Example 227], 60 nM.
Still for that read-out and setting: the figure for `O=S(=O)(c1ccccc1)c1cc(N2CCOCC2)c2oc3c(c2c1)CNCC3` [Example 228] is 47 nM.
Take `O=S(=O)(c1ccccc1)c1cc(Cn2ccnc2)c2oc3c(c2c1)CNCC3` [Example 229]: the inhibitory constant (Ki) on human 5-HT6 receptor (setting [2]) is 64 nM.
Turning to `COc1cc(Sc2ccccc2)cc2c3c(oc12)CCNC3` [Example 230], on human 5-HT6 receptor (setting [2]), the Ki is 1.9 nM.
As for `[O-][S+](c1ccccc1)c1cc(Cl)c2oc3c(c2c1)CNCC3` (centres unmarked) [Example 231], the Ki on human 5-HT6 receptor (setting [2]) came to 3.1 nM.
Still for that read-out and setting: as for `[O-][S+](c1ccccc1)c1cc(Cl)c2oc3c(c2c1)CNCC3` (centres unmarked) [Example 232], the figure is 29 nM; as for `COc1cc([S+]([O-])c2ccccc2)cc2c3c(oc12)CCNC3` (centres unmarked) [Example 233], 2.4 nM; as for `COc1cc([S+]([O-])c2ccccc2)cc2c3c(oc12)CCNC3` (centres unmarked) [Example 234], 7.4 nM.
For `COc1cc([S+]([O-])c2ccccc2)cc2c3c(oc12)CCNC3` (centres unmarked) [Example 235], the Ki on human 5-HT6 receptor (setting [2]) was found to be 1.1 nM.
Same read-out and setting: the figure for `Clc1cc(Cc2ccccc2)cc2c3c(oc12)CCNC3` [Example 236] is 24 nM; for `COc1cc(Oc2ccccc2)cc2c3c(oc12)CCNC3` [Example 237] it is 645 nM.
Same read-out and setting: the figure for `COc1cc(S(=O)(=O)c2ccccc2)cc2c3c(oc12)CCC(O)C3` (centres unmarked) [Example 238] is 0.59 nM; for `CC(=O)N1CCc2oc3c(Cl)cc(S(=O)(=O)c4ccccc4)cc3c2C1` [Example 239] it is 9.5 nM.
